Reference: patent US9149038B2, “4-amino-6-(heterocyclic)picolinates and 6-amino-2-(heterocyclic)pyrimidine-4-carboxylates and their use as herbicides” (Dow AgroSciences LLC, priority 2013, dated 2015)
Like-named read-outs stand apart in the source and are kept apart here.

Tests used:
[1] = tested on: Key Broadleaf Weed and Crop Species; assay: Post-Emergent Test II: postemergent herbicidal activity, visual rating after 14 d (Table 7); type: in vivo; details: post-emergence, 336 h; for pest or weed control at 35 g/ha: 35 g ai/ha; for pest or weed control at 70 g/ha: 70 g ai/ha; for pest or weed control at 140 g/ha: 140 g ai/ha
Text: (§1) Herbicidal evaluations were made visually on a scale of 0 to 100 where 0 represents no activity and 100 represents complete plant death.
(§2) Seeds or nutlets of the desired test plant species were planted in Sun Gro Metro-Mix® 360 planting mixture, which typically has a pH of 6.0 to 6.8 and an organic matter content of about 30 percent, in plastic pots with a surface area of 64 square centimeters (cm^2). When required to ensure good germination and healthy plants, a fungicide treatment and/or other chemical or physical treatment was applied. The plants were grown for 7-21 d in a greenhouse with an approximate 15 h photoperiod which was maintained at about 23-29° C. during the day and 22-28° C. during the night. Nutrients and water were added on a regular basis and supplemental lighting was provided with overhead metal halide 1000-Watt lamps as necessary. The plants were employed for testing when they reached the first or second true leaf stage.
(§3) A weighed amount, determined by the highest rate to be tested, of each test compound was placed in a 25 mL glass vial and was dissolved in 4 mL of a 97:3 v/v mixture of acetone and DMSO to obtain concentrated stock solutions. […] The concentrated stock solutions obtained were diluted with 20 mL of an aqueous mixture containing acetone, water, isopropyl alcohol, DMSO, Atplus 411F crop oil concentrate, and Triton® X-155 surfactant in a 48.5:39:10:1.5:1.0:0.02 v/v ratio to obtain spray solutions containing the highest application rates. Additional application rates were obtained by serial dilution of 12 mL of the high rate solution into a solution containing 2 mL of a 97:3 v/v mixture of acetone and DMSO and 10 mL of an aqueous mixture containing acetone, water, isopropyl alcohol, DMSO, Atplus 411F crop oil concentrate, and Triton X-155 surfactant in a 48.5:39:10:1.5:1.0:0.02 v/v ratio to obtain ½×, ¼×, ⅛× and 1/16× rates of the high rate. Compound requirements are based upon a 12 mL application volume at a rate of 187 liters per hectare (L/ha). Formulated compounds were applied to the plant material with an overhead Mandel track sprayer equipped with 8002E nozzles calibrated to deliver 187 L/ha over an application area of 0.503 square meters at a spray height of 18 inches (43 cm) above the average plant canopy height. Control plants were sprayed in the same manner with the solvent blank.
(§4) The treated plants and control plants were placed in a greenhouse as described above and watered by subirrigation to prevent wash-off of the test compounds. After 14 d, the condition of the test plants as compared with that of the untreated plants was determined visually and scored on a scale of 0 to 100 percent where 0 corresponds to no injury and 100 corresponds to complete kill and are presented as indicated in Table 4.

[2] = tested on: Key Grass and Sedge Weeds as well as Grass Crops; assay: Post-Emergent Test II: postemergent herbicidal activity, visual rating after 14 d (Table 8); type: in vivo; details: post-emergence, 336 h; for pest or weed control at 35 g/ha: 35 g ai/ha; for pest or weed control at 70 g/ha: 70 g ai/ha; for pest or weed control at 140 g/ha: 140 g ai/ha
Text: as §1, §2, §3, §4

[3] = lambsquarters (Chenopodium album), read-out: Visual Growth Reduction (%) 14 Days After Application CHEAL
[4] = oilseed rape, canola (Brassica napus), read-out: Visual Growth Reduction (%) 14 Days After Application BRSNN
[5] = redroot pigweed (Amaranthus retroflexus), read-out: Visual Growth Reduction (%) 14 Days After Application AMARE
[6] = sunflower (Helianthus annuus), read-out: Visual Growth Reduction (%) 14 Days After Application HELAN
[7] = velvetleaf (Abutilon theophrasti), read-out: Visual Growth Reduction (%) 14 Days After Application ABUTH
[8] = wild poinsettia (Euphorbia heterophylla), read-out: Visual Growth Reduction (%) 14 Days After Application EPHHL
[9] = barnyardgrass (Echinochloa crus-galli), read-out: Visual Growth Reduction (%) 14 Days After Application ECHCG
[10] = maize, corn (Zea mays), read-out: Visual Growth Reduction (%) 14 Days After Application ZEAMX
[11] = rice (Oryza sativa), read-out: Visual Growth Reduction (%) 14 Days After Application ORYSA
[12] = wheat, spring (Triticum aestivum), read-out: Visual Growth Reduction (%) 14 Days After Application TRZAS
[13] = yellow nutsedge (Cyperus esculentus), read-out: Visual Growth Reduction (%) 14 Days After Application CYPES
[14] = ABUTH: velvetleaf (Abutilon theophrasti), read-out: Visual Growth Reduction (%) 14 Days After Application ABUTH
[15] = AMARE: redroot pigweed (Amaranthus retroflexus), read-out: Visual Growth Reduction (%) 14 Days After Application AMARE
[16] = BRSNN: oilseed rape, canola (Brassica napus), read-out: Visual Growth Reduction (%) 14 Days After Application BRSNN
[17] = CHEAL: lambsquarters (Chenopodium album), read-out: Visual Growth Reduction (%) 14 Days After Application CHEAL
[18] = EPHHL: wild poinsettia (Euphorbia heterophylla), read-out: Visual Growth Reduction (%) 14 Days After Application EPHHL
[19] = HELAN: sunflower (Helianthus annuus), read-out: Visual Growth Reduction (%) 14 Days After Application HELAN
[20] = barnyardgrass (Echinochloa crus-galli), read-out: Visual Growth Reduction (%) 14 Days After Application, ECHCG
[21] = giant foxtail (Setaria faberi), read-out: Visual Growth Reduction (%) 14 Days After Application, SETFA
[22] = maize, corn (Zea mays), read-out: Visual Growth Reduction (%) 14 Days After Application, ZEAMX
[23] = rice (Oryza sativa), read-out: Visual Growth Reduction (%) 14 Days After Application, ORYSA
[24] = wheat, spring (Triticum aestivum), read-out: Visual Growth Reduction (%) 14 Days After Application, TRZAS
[25] = yellow nutsedge (Cyperus esculentus), read-out: Visual Growth Reduction (%) 14 Days After Application, CYPES

## COC(=O)c1nc(-c2cc3c(cc2F)OC(F)(F)O3)c(F)c(N)c1OC [Compound 22, Methyl 4-amino-5-fluoro-3-methoxy-6-(2,2,6-trifluorobenzo[d][1,3]dioxol-5-yl)picolinate]
[1]; [3]
  pest or weed control at 35 g/ha: 0 to 29%
  pest or weed control at 70 g/ha: 0 to 29%
  pest or weed control at 140 g/ha: 0 to 29%
[1]; [4]
  pest or weed control at 35 g/ha: 0 to 29%
  pest or weed control at 70 g/ha: 0 to 29%
  pest or weed control at 140 g/ha: 0 to 29%
[1]; [5]
  pest or weed control at 35 g/ha: 0 to 29%
  pest or weed control at 70 g/ha: 0 to 29%
  pest or weed control at 140 g/ha: 0 to 29%
[1]; [6]
  pest or weed control at 35 g/ha: 85 to 94%
  pest or weed control at 70 g/ha: 85 to 94%
  pest or weed control at 140 g/ha: 85 to 94%
[1]; [7]
  pest or weed control at 35 g/ha: 0 to 29%
  pest or weed control at 70 g/ha: 0 to 29%
  pest or weed control at 140 g/ha: 0 to 29%
[1]; [8]
  pest or weed control at 35 g/ha: 30 to 44%
  pest or weed control at 70 g/ha: 45 to 59%
  pest or weed control at 140 g/ha: 45 to 59%
[2]; [9]
  pest or weed control at 35 g/ha: 0 to 29%
  pest or weed control at 70 g/ha: 0 to 29%
  pest or weed control at 140 g/ha: 45 to 59%
[2]; [10]
  pest or weed control at 35 g/ha: 0 to 29%
  pest or weed control at 70 g/ha: 60 to 74%
  pest or weed control at 140 g/ha: 75 to 84%
[2]; [11]
  pest or weed control at 35 g/ha: 0 to 29%
  pest or weed control at 70 g/ha: 0 to 29%
  pest or weed control at 140 g/ha: 0 to 29%
[2]; [12]
  pest or weed control at 35 g/ha: 0 to 29%
  pest or weed control at 70 g/ha: 45 to 59%
  pest or weed control at 140 g/ha: 60 to 74%
[2]; [13]
  pest or weed control at 35 g/ha: 95 to 100%
  pest or weed control at 70 g/ha: 95 to 100%
  pest or weed control at 140 g/ha: 95 to 100%

## CN1CCc2cc(-c3nc(C(=O)O)c(Cl)c(N)c3F)ccc21 [Compound 108]
[1]; [14]
  pest or weed control at 140 g/ha: 0 to 29%
[1]; [15]
  pest or weed control at 140 g/ha: 0 to 29%
[1]; [16]
  pest or weed control at 140 g/ha: 0 to 29%
[1]; [17]
  pest or weed control at 140 g/ha: 60 to 74%
[1]; [18]
  pest or weed control at 140 g/ha: 0 to 29%
[1]; [19]
  pest or weed control at 140 g/ha: 60 to 74%
[2]; [20]
  pest or weed control at 140 g/ha: 75 to 84%
[2]; [21]
  pest or weed control at 140 g/ha: 0 to 29%
[2]; [22]
  pest or weed control at 140 g/ha: 0 to 29%
[2]; [23]
  pest or weed control at 140 g/ha: 0 to 29%
[2]; [24]
  pest or weed control at 140 g/ha: 0 to 29%
[2]; [25]
  pest or weed control at 140 g/ha: 0 to 29%

## COC(=O)c1nc(-c2cc(OC)c3c(c2)OCO3)c(F)c(N)c1Cl [Compound 14]
[1]; [3]
  pest or weed control at 140 g/ha: 75 to 84%
[1]; [4]
  pest or weed control at 140 g/ha: 0 to 29%
[1]; [5]
  pest or weed control at 140 g/ha: 0 to 29%
[1]; [6]
  pest or weed control at 140 g/ha: 85 to 94%
[1]; [7]
  pest or weed control at 140 g/ha: 0 to 29%
[1]; [8]
  pest or weed control at 140 g/ha: 0 to 29%
[2]; [9]
  pest or weed control at 140 g/ha: 0 to 29%
[2]; giant foxtail (Setaria faberi), read-out: Visual Growth Reduction (%) 14 Days After Application SETFA
  pest or weed control at 140 g/ha: 0 to 29%
[2]; [10]
  pest or weed control at 140 g/ha: 0 to 29%
[2]; [11]
  pest or weed control at 140 g/ha: 0 to 29%
[2]; [12]
  pest or weed control at 140 g/ha: 0 to 29%
[2]; [13]
  pest or weed control at 140 g/ha: 0 to 29%

## COC(=O)c1nc(-c2ccc3c(c2)CCN3C)c(F)c(N)c1Cl [Compound 107]
[1]; [14]
  pest or weed control at 140 g/ha: 60 to 74%
[1]; [15]
  pest or weed control at 140 g/ha: 0 to 29%
[1]; [16]
  pest or weed control at 140 g/ha: 0 to 29%
[1]; [17]
  pest or weed control at 140 g/ha: 85 to 94%
[1]; [18]
  pest or weed control at 140 g/ha: 95 to 100%
[1]; [19]
  pest or weed control at 140 g/ha: 0 to 29%
[2]; [20]
  pest or weed control at 140 g/ha: 0 to 29%
[2]; [21]
  pest or weed control at 140 g/ha: 0 to 29%
[2]; [22]
  pest or weed control at 140 g/ha: 0 to 29%
[2]; [23]
  pest or weed control at 140 g/ha: 0 to 29%
[2]; [24]
  pest or weed control at 140 g/ha: 0 to 29%
[2]; [25]
  pest or weed control at 140 g/ha: 0 to 29%
